# Assay results as given in patent US20260295053A1, “COMPOUNDS FOR DEGRADATION AND INHIBITION OF KRAS (G12D) PROTEIN” (Shenzhen Ionova Life Science Co., Ltd., priority 2023, published 2026).
# What was measured:
# [1] = tested on: AsPC-1 cells; experiment: AsPC-1 cell proliferation assay (CellTiter Glo); type: cell-based; conditions: 6 days
# Summary of the method: (§1)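 Degradation: 22,000 cells/well grown to ~90% confluency, 24 h compound, fixed/permeabilised, anti-KRAS G12D + β-actin antibodies, near-IR fluorescence, DC50. Proliferation: 3,500 cells/well overnight, 6 d compound, CellTiter Glo luminescence, IC50. Dosing […]–1.5 nM final, 1:3 steps.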
# [2] = molecular target: T1, KRAS (G12D) (Homo sapiens, UniProt P01116, G12D); experiment: KRAS (G12D) cellular degradation assay in AsPC-1 cells; type: cell-based; conditions: 24 hours, antibody fluorescence (Odyssey CLX), DC50 half-maximal degradation concentration
# T1 construct: in-cell western with KRAS G12D antibody after 24 h
# T1 sequence (P01116 1-188 isoform P01116-2 G12D): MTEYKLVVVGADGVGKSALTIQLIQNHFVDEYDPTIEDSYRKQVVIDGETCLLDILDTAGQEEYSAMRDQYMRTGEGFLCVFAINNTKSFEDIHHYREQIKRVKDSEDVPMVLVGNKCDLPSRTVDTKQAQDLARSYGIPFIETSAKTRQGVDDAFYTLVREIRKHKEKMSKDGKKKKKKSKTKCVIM
# Summary of the method: as §1
Structure (SMILES),"IC50 ([1]; Homo sapiens, ASPC1, 144 h) [nM]",DC50 [2] [nM],IC50 [1] [nM]
"CCn1nccc1-c1ccc([C@H](CO)NC(=O)[C@@H]2C[C@@H](O)CN2C(=O)[C@H](C(C)C)n2cc(-c3ccc(COc4c(-c5c(C)c(F)cc6[nH]ncc56)c(C5CC5)cc5c(N6CC7CCC(C6)N7)nc(OC6CCOCC6)nc45)cc3)nn2)cc1 [Example 35, (2S,4R)-1-((2S)-2-(4-(4-(((4-(3,8-diazabicyclo[3.2.1]octan-3-yl)-6-cyclopropyl-7-(6-fluoro-5-methyl-1H-indazol-4-yl)-2-((tetrahydro-2H-pyran-4-yl)oxy)quinazolin-8-yl)oxy)methyl)phenyl)-1H-1,2,3-triazol-1-yl)-3-methylbutanoyl)-N—((R)-1-(4-(1-ethyl-1H-pyrazol-5-yl)phenyl)-2-hydroxyethyl)-4-hydroxypyrrolidine-2-carboxamide]",< 10,10 to 100,–
"CCn1nccc1-c1ccc([C@H](CO)NC(=O)[C@@H]2C[C@@H](O)CN2C(=O)[C@H](C(C)C)n2cc(-c3ccc(COc4c(-c5c(C)c(F)cc6[nH]ncc56)c(C5CC5)cc5c(N6C[C@@H]7C[C@H]6CN7)nc(OC[C@H](C)OC)nc45)c4c3CC4)nn2)cc1 [Example 31, (2S,4R)-1-((2S)-2-(4-(5-(((4-((1S,4S)-2,5-diazabicyclo[2.2.1]heptan-2-yl)-6-cyclopropyl-7-(6-fluoro-5-methyl-1H-indazol-4-yl)-2-((S)-2-methoxypropoxy)quinazolin-8-yl)oxy)methyl)bicyclo[4.2.0]octa-1,3,5-trien-2-yl)-1H-1,2,3-triazol-1-yl)-3-methylbutanoyl)-N—((R)-1-(4-(1-ethyl-1H-pyrazol-5-yl)phenyl)-2-hydroxyethyl)-4-hydroxypyrrolidine-2-carboxamide]",< 10,10 to 100,–
"CCn1nccc1-c1ccc([C@@H](NC(=O)[C@@H]2C[C@@H](O)CN2C(=O)[C@H](C(C)C)n2cc(-c3ccc(COc4c(-c5c(C)c(F)cc6[nH]ncc56)c(C5CC5)cc5c(N6C[C@@H]7C[C@H]6CN7)nc(OC6CCC7(CC6)COC7)nc45)cc3)nn2)[C@H](C)O)cc1 [Example 87, (2S,4R)-1-((2S)-2-(4-(4-(((2-((2-oxaspiro[3.5]nonan-7-yl)oxy)-4-((1S,4S)-2,5-diazabicyclo[2.2.1]heptan-2-yl)-6-cyclopropyl-7-(6-fluoro-5-methyl-1H-indazol-4-yl)quinazolin-8-yl)oxy)methyl)phenyl)-1H-1,2,3-triazol-1-yl)-3-methylbutanoyl)-N-((1R,2S)-1-(4-(1-ethyl-1H-pyrazol-5-yl)phenyl)-2-hydroxypropyl)-4-hydroxypyrrolidine-2-carboxamide]",< 10,< 10,–
"CCn1nccc1-c1ccc([C@@H](NC(=O)[C@@H]2C[C@@H](O)CN2C(=O)[C@H](C(C)C)n2cc(-c3ccc(COc4c(-c5c(C)c(F)cc6[nH]ncc56)c(C5CC5)cc5c(N(C)[C@H]6CCNC6)nc(OC[C@H](C)OC)nc45)cc3)nn2)[C@H](C)O)c2c1CC2 [Example 164, (2S,4R)-1-((2S)-2-(4-(4-(((6-cyclopropyl-7-(6-fluoro-5-methyl-1H-indazol-4-yl)-2-((S)-2-methoxypropoxy)-4-(methyl((S)-pyrrolidin-3-yl)amino)quinazolin-8-yl)oxy)methyl)phenyl)-1H-1,2,3-triazol-1-yl)-3-methylbutanoyl)-N-((1R,2S)-1-(5-(1-ethyl-1H-pyrazol-5-yl)bicyclo[4.2.0]octa-1(6),2,4-trien-2-yl)-2-hydroxypropyl)-4-hydroxypyrrolidine-2-carboxamide]",–,< 10,< 10
"CCn1nccc1-c1ccc([C@H](CO)NC(=O)[C@@H]2C[C@@H](O)CN2C(=O)[C@H](C(C)C)n2cc(-c3ccc(COc4c(-c5c(C)c(F)cc6[nH]ncc56)c(C5CC5)cc5c(N(C)[C@@H]6CCNC6)nc(O[C@H]6C[C@H](OC)C6)nc45)cc3)nn2)cc1 [Example 205, (2S,4R)-1-((2S)-2-(4-(4-(((6-cyclopropyl-7-(6-fluoro-5-methyl-1H-indazol-4-yl)-2-((1r,3R)-3-methoxycyclobutoxy)-4-(methyl((R)-pyrrolidin-3-yl)amino)quinazolin-8-yl)oxy)methyl)phenyl)-1H-1,2,3-triazol-1-yl)-3-methylbutanoyl)-N—((R)-1-(4-(1-ethyl-1H-pyrazol-5-yl)phenyl)-2-hydroxyethyl)-4-hydroxypyrrolidine-2-carboxamide]",< 10,< 10,–

# The remaining lines, values ahead:
"IC50 ([1]; Homo sapiens, ASPC1, 144 h) [nM]",DC50 [2] [nM],IC50 [1] [nM],Structure (SMILES)
< 10,< 10,–,"CCn1nccc1-c1ccc([C@@H](NC(=O)[C@@H]2C[C@@H](O)CN2C(=O)[C@H](C(C)C)n2cc(-c3ccc(COc4c(-c5c(C)c(F)cc6[nH]ncc56)c(C5CC5)cc5c(N6C[C@@H]7C[C@H]6CN7)nc(OC[C@H](C)OC)nc45)cc3)nn2)C(C)O)cc1 (stereo in doubt) [Example 75, (2S,4R)-1-((2S)-2-(4-(4-(((4-((1S,4S)-2,5-diazabicyclo[2.2.1]heptan-2-yl)-6-cyclopropyl-7-(6-fluoro-5-methyl-1H-indazol-4-yl)-2-((S)-2-methoxypropoxy)quinazolin-8-yl)oxy)methyl)phenyl)-1H-1,2,3-triazol-1-yl)-3-methylbutanoyl)-N-((1R,2R)-1-(4-(1-ethyl-1H-pyrazol-5-yl)phenyl)-2-hydroxypropyl)-4-hydroxypyrrolidine-2-carboxamide]"
< 10,< 10,–,"CCn1nccc1-c1ccc([C@@H](NC(=O)[C@@H]2C[C@@H](O)CN2C(=O)[C@H](C(C)C)n2cc(-c3ccc(COc4c(-c5c(C)c(F)cc6[nH]ncc56)c(C5CC5)cc5c(N6C[C@@H]7C[C@H]6CN7)nc(OC[C@H](C)OC)nc45)cc3)nn2)[C@@H](C)O)cc1 [Example 73, (2S,4R)-1-((2S)-2-(4-(4-(((4-((1S,4S)-2,5-diazabicyclo[2.2.1]heptan-2-yl)-6-cyclopropyl-7-(6-fluoro-5-methyl-1H-indazol-4-yl)-2-((S)-2-methoxypropoxy)quinazolin-8-yl)oxy)methyl)phenyl)-1H-1,2,3-triazol-1-yl)-3-methylbutanoyl)-N-((1R,2R)-1-(4-(1-ethyl-1H-pyrazol-5-yl)phenyl)-2-hydroxypropyl)-4-hydroxypyrrolidine-2-carboxamide]"
< 10,< 10,–,"CC[C@H](O)[C@H](NC(=O)[C@@H]1C[C@@H](O)CN1C(=O)[C@H](C(C)C)n1cc(-c2ccc(COc3c(-c4c(C)c(F)cc5[nH]ncc45)c(C4CC4)cc4c(N5C[C@@H]6C[C@H]5CN6)nc(OC5CCOCC5)nc34)cc2)nn1)c1ccc(-c2scnc2C)cc1 [Example 139, (2S,4R)-1-((2S)-2-(4-(4-(((4-((1S,4S)-2,5-diazabicyclo[2.2.1]heptan-2-yl)-6-cyclopropyl-7-(6-fluoro-5-methyl-1H-indazol-4-yl)-2-((tetrahydro-2H-pyran-4-yl)oxy)quinazolin-8-yl)oxy)methyl)phenyl)-1H-1,2,3-triazol-1-yl)-3-methylbutanoyl)-4-hydroxy-N-((1R,2S)-2-hydroxy-1-(4-(4-methylthiazol-5-yl)phenyl)butyl)pyrrolidine-2-carboxamide]"
< 10,< 10,–,"CCn1nccc1-c1ccc([C@H](CO)NC(=O)[C@@H]2C[C@@H](O)CN2C(=O)[C@H](C(C)C)n2cc(-c3ccc(COc4c(-c5c(C)c(F)cc6[nH]ncc56)c(C5CC5)cc5c(N6C[C@@H]7C[C@H]6CN7)nc(OC(COC)C(F)(F)F)nc45)cc3)nn2)cc1 (stereo partly drawn) [Example 58, (2S,4R)-1-((2S)-2-(4-(4-(((4-((1S,4S)-2,5-diazabicyclo[2.2.1]heptan-2-yl)-6-cyclopropyl-7-(6-fluoro-5-methyl-1H-indazol-4-yl)-2-((1,1,1-trifluoro-3-methoxypropan-2-yl)oxy)quinazolin-8-yl)oxy)methyl)phenyl)-1H-1,2,3-triazol-1-yl)-3-methylbutanoyl)-N—((R)-1-(4-(1-ethyl-1H-pyrazol-5-yl)phenyl)-2-hydroxyethyl)-4-hydroxypyrrolidine-2-carboxamide]"
< 10,< 10,–,"CO[C@@H](C)COc1nc(N2CCNCC[C@H]2C)c2cc(C3CC3)c(-c3c(C)c(F)cc4[nH]ncc34)c(OCc3ccc(-c4cn([C@H](C(=O)N5C[C@H](O)C[C@H]5C(=O)N[C@@H](CO)c5ccc(-c6scnc6C)cc5)C(C)C)nn4)cc3)c2n1 [Example 189, (2S,4R)-1-((2S)-2-(4-(4-(((6-cyclopropyl-7-(6-fluoro-5-methyl-1H-indazol-4-yl)-2-((S)-2-methoxypropoxy)-4-((R)-7-methyl-1,4-diazepan-1-yl)quinazolin-8-yl)oxy)methyl)phenyl)-1H-1,2,3-triazol-1-yl)-3-methylbutanoyl)-4-hydroxy-N—((R)-2-hydroxy-1-(4-(4-methylthiazol-5-yl)phenyl)ethyl)pyrrolidine-2-carboxamide]"
–,< 10,< 10,"CO[C@@H](C)COc1nc(N(C)[C@H]2CCNC2)c2cc(C3CCC3)c(-c3c(C)c(F)cc4[nH]ncc34)c(OCc3ccc(-c4cn([C@H](C(=O)N5C[C@H](O)C[C@H]5C(=O)N[C@H](c5ccc(-c6scnc6C)cc5)[C@H](C)O)C(C)C)nn4)cc3)c2n1 [Example 159, (2S,4R)-1-((2S)-2-(4-(4-(((6-cyclobutyl-7-(6-fluoro-5-methyl-1H-indazol-4-yl)-2-((S)-2-methoxypropoxy)-4-(methyl((S)-pyrrolidin-3-yl)amino)quinazolin-8-yl)oxy)methyl)phenyl)-1H-1,2,3-triazol-1-yl)-3-methylbutanoyl)-4-hydroxy-N-((1R,2S)-2-hydroxy-1-(4-(4-methylthiazol-5-yl)phenyl)propyl)pyrrolidine-2-carboxamide]"
